# In ChEMBL document CHEMBL4819004, “Discovery of selective CDK9 degraders with enhancing antiproliferative activity through PROTAC conversion” (Eur J Med Chem, 2021):
# Calls of active or inactive are those of the source. No cut-off for these calls is given here.
# Experiments:
# [1] = target: T1, Protein cereblon/Cyclin-dependent kinase 9 (Homo sapiens, UniProt P50750+Q96SW2); assay: Reversible PROTAC activity at CRBN/CDK9 in human MV4-11 cells assessed as CDK9 degradation at 250 nM incubated for 6 hrs followed by drug wash-out for 12 hrs by western blot analysis; format: cell-based
# [2] = system: MV4-11; assay: Induction of apoptosis in human MV4-11 cells assessed as early apoptotic cells at 1 nM after 6 hrs by AnnexinV-FITC/propidium iodide staining based flow cytometry (reference value: 5.36 %); format: functional
# [3] = target: T1, Protein cereblon/Cyclin-dependent kinase 9; assay: Protac activity at CRBN/CDK9 in human MOLM-13 cells assessed as CDK9 degradation rate at 500 nM incubated for 6 hrs by Western blot assay relative to control; format: cell-based
# [4] = system: MV4-11; assay: Induction of apoptosis in human MV4-11 cells assessed as viable cells at 100 nM after 6 hrs by AnnexinV-FITC/propidium iodide staining based flow cytometry (reference value: 90.1 %); format: functional; conditions: read-out: Activity
# [5] = system: MV4-11; assay: Induction of apoptosis in human MV4-11 cells assessed as necrotic cells at 30 nM after 6 hrs by AnnexinV-FITC/propidium iodide staining based flow cytometry (reference value: 0.16 %); format: functional
# [6] = system: MV4-11; assay: Induction of apoptosis in human MV4-11 cells assessed as total apoptotic cells at 1000 nM after 6 hrs by AnnexinV-FITC/propidium iodide staining based flow cytometry (reference value: 9.75 %); format: functional
# [7] = target: T1, Protein cereblon/Cyclin-dependent kinase 9; assay: Protac activity at CRBN/CDK9 in human MV4-11 cells assessed as induction of CDK9 degradation by measuring downregulation of CDK9 expression level at 250 nM by western blot analysis; format: cell-based; conditions: time 1-12 hrs, TDE = time-dependent effect
# [8] = system: HCT-116; assay: Antiproliferative activity against human HCT-116 cells incubated for 72 hrs by MTT assay; format: functional, cell-based; conditions: HCT-116, 72 h
# [9] = system: MV4-11; assay: Induction of apoptosis in human MV4-11 cells assessed as early apoptotic cells at 500 nM after 6 hrs by AnnexinV-FITC/propidium iodide staining based flow cytometry (reference value: 5.36 %); format: functional
# [10] = system: A549; assay: Antiproliferative activity against human A549 cells incubated for 72 hrs by MTT assay; format: functional, cell-based; conditions: A549, 72 h
# [11] = target: Protein cereblon/Cyclin-dependent kinase 6 (Homo sapiens) (UniProt Q00534+Q96SW2); assay: PROTAC activity at CRBN/CDK6 in human MV4-11 cells assessed as induction of CDK6 degradation at 31.25 to 500 nM measured after 3 hrs by western blot analysis; format: cell-based; conditions: dose 31.25-500 nM
# [12] = system: MCF7; assay: Antiproliferative activity against human MCF7 cells incubated for 72 hrs by MTT assay; format: functional, cell-based; conditions: MCF7, 72 h
# [13] = system: MV4-11; assay: Induction of apoptosis in human MV4-11 cells assessed as total apoptotic cells at 500 nM after 6 hrs by AnnexinV-FITC/propidium iodide staining based flow cytometry (reference value: 9.75 %); format: functional
# [14] = system: B16; assay: Antiproliferative activity against mouse B16 cells incubated for 72 hrs by MTT assay; format: functional, cell-based; conditions: B16, 72 h
# [15] = target: T1, Protein cereblon/Cyclin-dependent kinase 9; assay: Protac activity at CRBN/CDK9 in human MV4-11 cells assessed as induction of CDK9 degradation by measuring downregulation of CDK9 expression level at 250 nM measured after 1 hr by western blot analysis; format: cell-based
# [16] = target: T1, Protein cereblon/Cyclin-dependent kinase 9; assay: Protac activity at CRBN/CDK9 in human MV4-11 cells assessed as induction of CDK9 degradation by measuring MCL-1 protein expression level at 250 nM measured after 12 hrs by western blot analysis; format: cell-based
# [17] = target: CDK9/cyclin T1 (Homo sapiens, UniProt P50750); assay: Inhibition of CDK9/cyclin T (unknown origin) using YSPTSPSYSPTSPSYSPTSPKKK or histone H1 as substrate incubated for 2 hrs in presence of [gamma-33P]ATP by radioactive filter binding assay; format: protein-complex assay
# [18] = target: T1, Protein cereblon/Cyclin-dependent kinase 9; assay: PROTAC activity at CRBN/CDK9 in human MV4-11 cells assessed as reduction in RNA PolII CTD phosphorylation at Ser2 residue measured after 6 hrs by western blot analysis; format: cell-based; conditions: dose 31.25-8000 nM
# [19] = system: MV4-11; assay: Induction of apoptosis in human MV4-11 cells assessed as early apoptotic cells at 100 nM after 6 hrs by AnnexinV-FITC/propidium iodide staining based flow cytometry (reference value: 5.36 %); format: functional
# [20] = system: MV4-11; assay: Antiproliferative activity against human MV4-11 cells incubated for 72 hrs by MTT assay; format: functional, cell-based; conditions: MV4-11, 72 h
# [21] = target: Protein cereblon/Cyclin-dependent kinase 2 (Homo sapiens) (UniProt P24941+Q96SW2); assay: PROTAC activity at CRBN/CDK2 in human MV4-11 cells assessed as induction of CDK2 degradation at 31.25 to 500 nM measured after 3 hrs by western blot analysis; format: cell-based; conditions: dose 31.25-500 nM
# [22] = system: MV4-11; assay: Potency index, ratio of BAY-1143572 IC50 to test compound IC50 for antiproliferative activity against human MV4-11 cells incubated for 72 hrs by MTT assay; format: functional
# [23] = system: HepG2; assay: Antiproliferative activity against human HepG2 cells incubated for 72 hrs by MTT assay; format: functional, cell-based; conditions: HepG2, 72 h
# [24] = target: Cyclin-dependent kinase 9 (Homo sapiens) (UniProt P50750); assay: Inhibition of human full length recombinant CDK9 expressed in bacterial expression system assessed as remaining enzyme activity at 1 uM by competitive binding Kinome scan analysis
# [25] = system: MV4-11; assay: Induction of apoptosis in human MV4-11 cells assessed as necrotic cells at 500 nM after 6 hrs by AnnexinV-FITC/propidium iodide staining based flow cytometry (reference value: 0.16 %); format: functional
# [26] = target: Protein cereblon/Cyclin-dependent kinase 1 (Homo sapiens) (UniProt P06493+Q96SW2); assay: PROTAC activity at CRBN/CDK1 in human MV4-11 cells assessed as induction of CDK1 degradation at 31.25 to 500 nM measured after 3 hrs by western blot analysis; format: cell-based; conditions: dose 31.25-500 nM
# [27] = target: Protein cereblon/Cyclin-dependent kinase 7 (Homo sapiens) (UniProt P50613+Q96SW2); assay: PROTAC activity at CRBN/CDK7 in human MV4-11 cells assessed as induction of CDK7 degradation at 31.25 to 500 nM measured after 3 hrs by western blot analysis; format: cell-based; conditions: dose 31.25-500 nM
compound,measurement,setting,value
COc1cc(F)ccc1-c1ncnc(Nc2cccc(CS(C)(=O)=NC(=O)CCCCCCCC(=O)NCCNc3cccc4c3C(=O)N(C3CCC(=O)NC3=O)C4=O)c2)n1 (configuration not stated),Activity,[1],Active
same,Activity,[2],6.13%
same,Activity,[3],100%
same,viability at 0.1 µM,[4],72.7%
same,Activity,[5],0.28%
same,Activity,[6],80.4%
same,Activity,[7],Tde
same,IC50,[8],3.08 µM
same,Activity,[9],54.2%
same,IC50,[10],1.22 µM
same,Activity,[11],inactive
same,IC50,[12],3.12 µM
same,Activity,[13],67.9%
same,IC50,[14],1.4 µM
same,Activity,[15],Active
same,Activity,[16],0%
same,IC50,[17],0.00868 µM
same,Activity,[18],Dose-Dependent Effect
same,Activity,[19],11.5%
same,IC50,[20],0.025 µM
same,Activity,[21],inactive
same,Ratio IC50,[22],20
same,IC50,[23],2.11 µM
same,Activity,[24],< 10%
same,Activity,[25],0.72%
same,Activity,[26],inactive
same,Activity,[27],inactive
